In PubChem BioAssay (NCI) one finds GI50 and TGI data, which are given here for 15 compounds.

Common to all, as to experiment: DTP human tumour cell line panel, 48 h
Assay [1] relates to SK-MEL-28 melanoma.
Assay [2] has as its system SW-620 colon.
The test system of assay [3] is SF-268 CNS.
The subject of assay [4] is T-47D breast.
The subject of assay [5] is K-562 leukemia.
Assay [6] deals with RPMI-8226 leukemia.
Assay [7] deals with UACC-257 melanoma.
Assay [8] concerns OVCAR-3 ovarian.
For assay [9], the system named is SK-MEL-2 melanoma.
The subject of assay [10] is HS 578T breast.

Values joined by “and” are separate entries in the source; they are usually repeats but may differ in a detail not shown here. Equal entries are not always repeated.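 48-hour exposure; five concentrations; linearly interpolated endpoints. Abbreviation: GI50, concentration required for 50% inhibition of growth. TGI denotes the concentration required for complete inhibition of growth.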

One may read the GI50 as the concentration giving 50% growth inhibition. By TGI is commonly meant the concentration giving total growth inhibition. Low values mean more potent growth arrest, high ones less potent growth arrest. With `COc1cc2oc(-c3cccc(C(=O)Nc4ccc(Cl)cc4)c3)cc(=O)c2c(OC)c1OC`, the GI50 in [1] was 1.84 µM; in assay [2], 4.87 µM; in assay [3], 4.66 µM; in assay [4], 1.68 µM; in assay [5], 2.77 µM; in assay [6] it was 0.49 µM. Also, the GI50 was 2.53 µM in [7], 3.6 µM in assay [8], 2.96 µM in assay [9] and 2.95 µM in [10]. The TGI in assay [1] is 5.89 µM; in assay [2] it was over 100 µM; in [3] it was over 100 µM; in [4] it was over 100 µM; in assay [5], over 100 µM; in assay [6], 3.79 µM. Also, the TGI in assay [7] was 5.72 µM; in assay [8], over 100 µM; in [9] it was 9.22 µM; in assay [10], over 100 µM.

On to `CN1CCN(CC(=O)N(C)c2ccc(N=C(c3ccccc3)c3c(O)[nH]c4ccc(C#N)cc34)cc2)CC1`, for which the GI50 was 2.21 µM in assay [1]; 1.9 µM in assay [2]; 2.62 µM in assay [3]; 14.2 µM in [4]; 0.575 µM in assay [5]; 2.65 µM in assay [6]. Moreover, the GI50 in assay [7] is 2.5 µM; in assay [8] it was 3.19 µM; in assay [9], 3.39 µM; in assay [10], 0.0938 µM. The TGI in [1] was 4.62 µM; in assay [2], 6.93 µM; in assay [3], 14.6 µM; in assay [4] it was 41.1 µM; in assay [5], 11.6 µM; in assay [6], 6.52 µM. The TGI in [7] was found to be 6.2 µM; in assay [8], 14.2 µM; in assay [9], 15.7 µM; in assay [10], 2.09 µM.

For the compound `Oc1ccc(Br)cc1C=Nc1cccc(C(F)(F)F)c1`, the TGI in assay [1], in [2], in [3], in assay [4], in assay [5] and in assay [6] was over 100 µM throughout. The TGI in assay [7] is over 100 µM; in assay [8], over 100 µM; in assay [9] it was 49 µM; in assay [10], 83.3 µM.

Turning to `COC(=O)NC1C(C)OC(OC2C/C=C(/C)C3C=CC4C(OC5CC(OC6CCC(OC7CC(O)C(OC8CCC(O)C(C)O8)C(C)O7)C(C)O6)C(OC(C)=O)C(C)O5)C(C)CC(C)C4C3(C)/C(O)=C3/C(=O)OC4(CC(C=O)=CC(O)C4/C=C\2C)C3=O)CC1(C)[N+](=O)[O-]` (centres undefined), the GI50 was 0.0311 µM in [1]; 0.212 µM in [2]; 0.105 µM in [3]; 0.218 µM in [5]; 0.225 µM in assay [6]; 1.09 µM in [7]. In addition, the GI50 in assay [8] is 0.484 µM; in assay [9], 0.0551 µM. Moreover, the TGI in assay [2] was 4.74 µM and 1.11 µM; in [3] it was 11.2 µM and 9.73 µM; in assay [4] it was 10.2 µM; in [5], 11 µM and 12.1 µM; in assay [6] it was 5.99 µM and 0.705 µM; in assay [7] it was 2.47 µM and 11.1 µM. The TGI in assay [8] was 2.7 µM and 2.12 µM; in assay [10], 3.76 µM.

On to `CN=C(N)c1ccc(N=C(N)c2ccc(-c3ccc(C(N)=Nc4ccc(C(N)=NC)cc4)cc3)cc2)cc1`, for which the GI50 in assay [1] was 41.8 µM; in assay [2], over 100 µM; in assay [3], over 100 µM; in [4] it was 58.2 µM; in assay [5], 89.5 µM; in [6], 46.5 µM. The GI50 in assay [7] was over 100 µM; in assay [8] it was over 100 µM; in assay [9] it was 35.1 µM; in assay [10] it was over 100 µM. In addition, the total growth inhibition concentration (TGI) in [1], in [2], in assay [3], in assay [4], in [5] and in assay [6] was over 100 µM each time. In addition, the TGI in assay [7], in [8], in assay [9] and in assay [10] was over 100 µM in each case.

With `Cc1ccccc1N=Nc1c(O)ccc2ccccc12`, the TGI in assay [1], in [2], in [3], in assay [4], in assay [5] and in assay [6] was over 100 µM throughout. The TGI in [7], in assay [8], in assay [9] and in assay [10] was over 100 µM throughout.

For `C[C@@]1([C@H](OC(=O)c2ccccc2)C(N)=O)CO1`, the GI50 is 20.6 µM in assay [1]; 22.6 µM in assay [2]; 19.4 µM in assay [3]; 30.4 µM in assay [4]; 5.67 µM in [5]; 26.2 µM in assay [6]. Further, the GI50 is 43.7 µM in assay [7], 16.4 µM in assay [8], 22.1 µM in [9] and 34.4 µM in assay [10]. The TGI was 53.2 µM in [1]; 95.2 µM in assay [2]; 50 µM in assay [3]; 83.3 µM in [4]; over 100 µM in [5]; over 100 µM in assay [6]. The TGI in [7] was over 100 µM; in [8], 35.4 µM; in assay [9], over 100 µM; in [10], 92.7 µM.

As to `C/C(=N\O)c1ccc2ccc3ccccc3c2c1`, the TGI in [1] was over 100 µM; in assay [2] it was over 100 µM; in assay [3], over 100 µM; in assay [4], over 100 µM; in assay [5] it was 93 µM; in assay [6], over 100 µM. Further, the TGI is 53.4 µM in [7], 90.9 µM in assay [8], over 100 µM in assay [9] and 80.6 µM in assay [10].

With `COc1cccc(/C=C/C(=O)c2ccc3cc(OC)ccc3c2)c1`, the GI50 is 12.6 µM in assay [1]; 7.03 µM in [2]; 15.5 µM in [3]; 10.7 µM in assay [4]; 9.13 µM in assay [5]; 10.8 µM in assay [6]. Moreover, the GI50 in [7] is over 50 µM; in assay [8] it was 9.67 µM; in assay [9], 48.3 µM; in assay [10], 14.3 µM. The TGI in assay [1] was 48.1 µM; in assay [2], 20.5 µM; in assay [3] it was over 50 µM; in [4] it was 25.7 µM; in assay [5] it was over 50 µM; in [6] it was 34.8 µM. Further, the TGI in [7] was over 50 µM; in assay [8], 22.8 µM; in assay [9], over 50 µM; in [10] it was 48.3 µM.

For the compound `C#Cc1cccc(Nc2ncnc3cc(NC(=O)CCl)ccc23)c1`, the GI50 in assay [1] is 3.67 µM; in [2] it was 0.832 µM; in assay [3], 3.3 µM; in assay [4] it was 2.43 µM; in [5], 0.802 µM; in assay [6], 1.26 µM. The GI50 in assay [7] is 3.76 µM; in assay [8] it was 1.37 µM; in assay [9] it was 3.82 µM; in assay [10], 3.71 µM. In addition, the TGI in [1] stood at 7.34 µM; in assay [2] it was 3.08 µM; in assay [3] it was 8.55 µM; in assay [4] it was 5.93 µM; in assay [5], 25 µM; in assay [6], 6.15 µM. Further, the TGI in assay [7] came to 8.12 µM; in assay [8], 5.42 µM; in [9], 7.77 µM; in assay [10], 14.2 µM.

For `O=C1NC(=NCCc2ccc(F)cc2)S/C1=C\c1ccc2ncccc2c1`, the GI50 in [1] was over 25 µM; in assay [2], over 23.3 µM; in assay [3], over 25 µM; in [4], over 25 µM; in assay [5], over 25 µM; in [6] it was over 25 µM. Further, the GI50 in assay [7], in assay [8], in [9] and in [10] was over 25 µM each time. Further, the TGI in [1], in assay [2], in assay [3], in [4], in [5] and in assay [6] was over 25 µM in each case. Further, the TGI in assay [7], in assay [8], in assay [9] and in [10] was over 25 µM each time.

Consider `COc1cnc2c(c1)C(=O)c1c-2n(CCCNC2=NCCS2)c(=O)c2cc(F)ccc12`, for which the GI50 in assay [1] is 12.1 µM; in assay [2] it was 0.12 µM; in [3] it was 0.135 µM; in [4], 0.0762 µM; in [5], 0.249 µM; in assay [6] it was 0.0702 µM. Further, the GI50 was 0.456 µM in [7], 0.567 µM in assay [8], 15.8 µM in assay [9] and 12 µM in assay [10]. Further, the TGI in assay [1] was 24.9 µM; in [2], 3.34 µM; in assay [3], 2.58 µM; in assay [4], 17.2 µM; in assay [5] it was 2.92 µM; in [6] it was 1.21 µM. Moreover, the TGI in [7] stood at 20.4 µM; in [8] it was 2.27 µM; in assay [9], 32.7 µM; in assay [10] it was 32.4 µM.

Consider `O=C(Nc1ccc(Oc2ccc3nc(NC(=O)c4ccco4)[nH]c3c2)cc1)Nc1cc(C(F)(F)F)ccc1F`, for which the GI50 is 2.08 µM in assay [1]; 1.25 µM in assay [2]; 2.55 µM in assay [3]; 2 µM in assay [4]; 0.0122 µM in assay [5]; 2.17 µM in assay [6]. Moreover, the GI50 in assay [7] is 2.25 µM; in assay [8], 2.9 µM; in assay [9], 0.668 µM; in assay [10], 0.446 µM. The TGI in assay [1] is 7.04 µM; in assay [2], over 17.8 µM; in assay [3], 14.1 µM; in assay [4], 8.19 µM; in assay [5] it was 6.11 µM; in assay [6] it was 10.6 µM. Further, the TGI in assay [7] was 8.74 µM; in [8], 7.22 µM; in assay [9], 4.37 µM; in assay [10], 3.42 µM.

On to `O=C1CC(c2c[nH]c3ccc(F)cc23)C(=O)N1` (centres undefined), for which the GI50 in [1], in [2], in [3], in assay [4], in assay [5] and in [6] was over 100 µM each time. Further, the GI50 in [7], in [8], in assay [9] and in assay [10] was over 100 µM in each case. Moreover, the TGI in assay [1], in [2], in [3], in assay [4], in [5] and in assay [6] was over 100 µM throughout. Besides, the TGI in [7], in assay [8], in assay [9] and in assay [10] was over 100 µM in each case.

Consider `CO[C@H]1C[C@@H]2CC[C@@H](C)[C@@](O)(O2)C(=O)C(=O)N2CCCC[C@H]2C(=O)O[C@H]([C@H](C)C[C@@H]2CC[C@@H](OC(=O)C(C)(CO)CO)[C@H](OC)C2)CC(=O)[C@H](C)/C=C(\C)[C@@H](O)[C@@H](OC)C(=O)[C@H](C)C[C@H](C)\C=C/C=C/C=C/1C`, for which the GI50 is 0.0219 µM in assay [1]; over 10 µM in [2]; 5.96 µM in [5]; 0.00102 µM in assay [6]; over 10 µM in assay [7]; 0.685 µM in assay [8]. In addition, the GI50 in assay [9] is 1.68 µM; in [10] it was 0.00133 µM. Also, the TGI in assay [1], in [2], in assay [3], in [4], in [5] and in [6] was over 10 µM in each case. Moreover, the TGI in [7], in [8], in assay [9] and in [10] was over 10 µM each time.
